The text below walks through data of US4551460A, “Pyrido[2,1-b]quinazoline derivatives useful as agents for treatment of allergic conditions and vascular disorders involving thrombosis” (priority 1983, dated 1985).

A word on the IC50: it is the concentration at which inhibition is half-maximal.

For assay [1], the system named is PAF induced mortality. As to the kind of experiment: Prevention of mortality induced by platelet aggregating factor (PAF). The settings on record: PAF 0.10 mg/kg i.v. The format is in vivo, mice (CF1). The method, then:
(k) Prevention of Mortality Induced by Platelet Aggregating Factor (PAF)
Male CF1 mice weighing 20-30 gms (Carworth Farms Co.) are fed ad libitum.
Racemic 2-[[[2-(acetyloxy)-3-(octadecyloxy)propoxy]hydroxyphosphinyl]oxy]-N,N,N-trimethylethanaminium hydroxide inner salt hemihydrate (PAF) is concentrated in ethanol at a concentration of 1 mg/ml.At the time of experimentation, PAF is diluted in 0.1% BSA (bovine serum albumin) and administered intravenously at a dose of 0.10 mg/kg one hour after 10 mice are dosed with either vehicle (BSA) or drug. Mortality in mice treated with PAF occurs within 30 minutes after i.v. administration.

Assay [2] has as its system histamine-induced bronchoconstriction. As to the kind of experiment: Antagonism of histamine-induced bronchoconstriction in guinea pigs. It counts as in vivo, guinea pig (Hartley strain). The settings on record: Cavia porcellus, po, 2 hour pretreatment; read-out: ID50 antagonism of histamine-induced bronchoconstriction. The method, then:
(g) Antagonism of PAF and Histamine-induced Bronchoconstriction in Guinea Pig
Spontaneously breathing male guinea pigs (Hartley strain) weighing 300-450 grams are dosed orally with test drug or control vehicle two hours prior to challenge with agonist. The animals are anesthetized with urethane (2 gm/kg) intraperitoneally and the jugular vein and trachea are cannulated. Two hours after dosing, the animal is paralyzed with succinylcholine (1.2 mg/kg, i.v.) and ventilated (Harvard rodent respirator) at 40 breaths/minutes and 2.5 cc tidal volume. Propranolol (0.1 mg/kg, i.v.) is administered and five minutes thereafter the animal is challenged with a constrictory dose of platelet activating factor (10 μg/kg, i.v.) or histamine dihydrochloride (20 μg/kg, i.v.). The change (cm H2 O) between pre and peak ventilatory pressure readings is averaged for three control animals and five drug treated animals. The percent inhibition is calculated from the following formula: (Control-Drug Treated/Control)×100.

Assay [3] relates to SRS-A induced contraction of guinea pig ileum. As to the kind of experiment: In vitro SRS-A antagonism. The following applies: 30 seconds pretreatment. The protocol: (j) In vitro SRS-A Antagonism
SRS-A was determined by bioassay on the guinea pig ileum using a modification of the method described by Orange et al., Adv. Immunol., 1969, 10, 105. A 1.5 cm segment of the ileum, obtained from male guinea pigs (175-200 g), was suspended in an organ bath containing Tyrodes solution with 10^-6 M atropine sulfate and 10^-6 M pyrilamine maleate. The bath was maintained at 37° C. and gassed with a mixture of 95 percent oxygen and 5 percent carbon dioxide. The ileum was attached to a strain gauge transducer and isotonic contractions recorded by a strip chart recorder. A resting tension of 0.5 g was applied and the tissue allowed to equilibrate for 1 hour.
The SRS-A used in these studies was obtained by challenging a large quantity of chopped lung fragments from actively sensitized guinea pigs with egg albumin in vitro. The animals were sensitized to egg albumin by an intraperitoneal injection of the antigen (1 ml of 10 mg/ml) in saline 28 to 45 days prior to challenge. The in vitro challenge was carried out by first preincubating the lung tissue (40 mg/ml) at 37° C. in Tyrodes solution for 5 minutes, adding the egg albumin ([…] final concentration) to the fragments and after a 10 minute challenge, separating the media containing the SRS-A from the lung tissue by filtration on Whatman #1 filter paper. The concentration of SRS-A in the filtrate was calibrated by comparison of the contraction amplitude elicited in the bioassay system by a given volume of the supernatant with contractions obtained by varying concentrations of histamine. One unit of SRS-A is equivalent to that quantity which will give the same contraction as 5 ng of histamine. After standarization, the SRS-A was stored in small aliquots at -80° C. for further use. […] SRS-A antagonism was determined by pretreating the ileum with drug for 30 seconds prior to the addition of a concentration of SRS-A which have a submaximal response, determination of the amplitude of contraction elicited in the presence of drug and then washing the ileum with Tyrodes. […]

With `CC(C)c1ccc2nc3ccc(C(=O)NCCCCCCc4cccnc4)cn3c(=O)c2c1` [Compound C, 2-(1-Methylethyl)-N-[6-(3-pyridyl)hexyl]-11-oxo-11H-pyrido[2,1-b]quinazoline-8-carboxamide], in assay [1] (Mus musculus, Platelet, oral, read-out: oral ID50 (Inhibiting Dose), PAF induced mortality), the ED50 amounted to 13 mg/kg. Also, the “prevention of PAF induced mortality” value in assay [1] is “prevented PAF induced mortality”. For `CC(C)c1ccc2nc3ccc(C(=O)NCCCCn4ccnc4)cn3c(=O)c2c1` [Compound A, N-[4-(1H-imidazol-1-yl)butyl]-2-(1-methylethyl)-11-oxo-11H-pyrido[2,1-b]quinazoline-8-carboxamide], the ED50 in assay [2] stood at 39 mg/kg. The IC50 in assay [3] was found to be 1 µM. For `CC(C)c1ccc2nc3ccc(C(=O)NCCCCc4cccnc4)cn3c(=O)c2c1` [Compound B, 2-(1-methylethyl)-N-[4-(3-pyridyl)butyl]-11-oxo-11H-pyrido[2,1-b]quinazoline-8-carboxamide], the IC50 in assay [3] was 1 µM.
